Results reported in US20040058898A1, “Pharmaceutical composition for alleviating the violence of a mammal comprising nortestosterone derivatives” (priority 2002, published 2004).
“Also recorded” adds a separate entry of the source.

Key:
Type in all cases: in vivo
[1] = system: male horses which violently behaved, cried and did not take feed; assay: Alleviation of the violence and stimulation of the appetite in male horse; settings: male horse 200 kg, intramuscular
Description: (§1) After administration, their behaviors and appetites were observed.

[2] = system: male goats which violently behaved, cried and did not take feed; assay: Alleviation of the violence and stimulation of the appetite in male goat; settings: male goat 40 kg, intramuscular
Description: as §1

[3] = system: male lion which violently behaved, cried and did not take feed; assay: Alleviation of the violence and stimulation of the appetite in male lion
[4] = system: male cats which violently behaved, cried and did not take feed; assay: Alleviation of the violence and stimulation of the appetite in male cat; settings: male cat 1 kg, intramuscular
Description: as §1

[5] = system: male dogs which violently behaved, cried and did not take feed; assay: Alleviation of the violence and stimulation of the appetite in male dog; settings: male dog 40 kg, intramuscular
Description: as §1

[6] = system: male ostriches which violently behaved, cried and did not take feed; assay: Alleviation of the violence and stimulation of the appetite in male ostrich; settings: male ostrich 100 kg, intramuscular
Description: as §1

[7] = 200 mg (1 mg per kg), Experimental Example 24
[8] = 40 mg (1 mg per kg), Experimental Example 26
[9] = 40 mg (1 mg per kg), Experimental Example 26, listed as 17-decanoate-4-estren-3-one
[10] = male lion 100 kg, 100 mg (1 mg per kg), Experimental Example 28
[11] = male lion 100 kg, 10, 20, 50, 100, 150, 200, 500 and 1000 mg (0.1 to 10 mg per kg), Experimental Example 29
[12] = 1 mg per Table 5 (1 mg per kg; 100 mg [sic]), Experimental Example 22
[13] = 40 mg (1 mg per kg), Experimental Example 20
[14] = 100 mg (1 mg per kg), Experimental Example 1

**Q.** Which results are given for `CCCCCCCCCC(=O)O[C@H]1CC[C@H]2[C@@H]3CCC4=CC(=O)CC[C@@H]4[C@H]3CC[C@]12C` [17β-decanoate-4-estren-3-one]?
**A.** Violence and appetite, After administration: appetite ([1]; 20 mg (0.1 mg per kg), Experimental Example 25): stimulated appetite; Violence and appetite, After administration: appetite ([1]; 40 mg (0.2 mg per kg), Experimental Example 25): stimulated appetite; Violence and appetite, After administration: appetite ([1]; 100 mg (0.5 mg per kg), Experimental Example 25): stimulated appetite; Violence and appetite, After administration: appetite [1, 7]: appetite stimulated; also recorded: stimulated appetite; Violence and appetite, After administration: violence [1, 7]: violence of estrus alleviated; feed intake after administration [1, 7]: increased feed intake; Violence and appetite, After administration: appetite ([1]; 200 mg (1.0 mg per kg), Experimental Example 25): stimulated appetite; Violence and appetite, After administration: appetite ([1]; 300 mg (1.5 mg per kg), Experimental Example 25): stimulated appetite; Violence and appetite, After administration: appetite ([1]; 400 mg (2.0 mg per kg), Experimental Example 25): stimulated appetite; Violence and appetite, After administration: appetite ([1]; 1000 mg (5.0 mg per kg), Experimental Example 25): stimulated appetite; Violence and appetite, After administration: appetite ([1]; 2000 mg (10 mg per kg), Experimental Example 25): stimulated appetite; Violence and appetite, After administration: appetite ([2]; 4 mg (0.1 mg per kg), Experimental Example 27): stimulated appetite; Violence and appetite, After administration: appetite ([2]; 8 mg (0.2 mg per kg), Experimental Example 27): stimulated appetite; Violence and appetite, After administration: appetite ([2]; 20 mg (0.5 mg per kg), Experimental Example 27): stimulated appetite; Violence and appetite, After administration: appetite [2, 8]: stimulated appetite; feed intake after administration [2, 8]: increased feed intake; Violence and appetite, After administration: appetite [2, 9]: appetite stimulated; Violence and appetite, After administration: violence [2, 9]: violence of estrus alleviated; Violence and appetite, After administration: appetite ([2]; 40 mg (1.0 mg per kg), Experimental Example 27): stimulated appetite; Violence and appetite, After administration: appetite ([2]; 60 mg (1.5 mg per kg), Experimental Example 27): stimulated appetite; Violence and appetite, After administration: appetite ([2]; 80 mg (2.0 mg per kg), Experimental Example 27): stimulated appetite; Violence and appetite, After administration: appetite ([2]; 200 mg (5.0 mg per kg), Experimental Example 27): stimulated appetite; Violence and appetite, After administration: appetite ([2]; 400 mg (10 mg per kg), Experimental Example 27): stimulated appetite; appetite after intramuscular injection [3, 10]: appetite stimulated; feed intake after administration [3, 10]: increased feed intake; violence of estrus after intramuscular injection [3, 10]: violence of estrus alleviated; appetite after intramuscular injection [3, 11]: appetite stimulated; feed intake after administration [3, 11]: increased feed intake; violence of estrus after intramuscular injection [3, 11]: violence of estrus alleviated; Violence and appetite, After administration: appetite ([4]; 0.1 mg (0.1 mg per kg), Experimental Example 23): stimulated appetite; Violence and appetite, After administration: appetite ([4]; 0.2 mg (0.2 mg per kg), Experimental Example 23): stimulated appetite; Violence and appetite, After administration: appetite ([4]; 0.5 mg (0.5 mg per kg), Experimental Example 23): stimulated appetite; Violence and appetite, After administration: appetite ([4]; 1 mg (1.0 mg per kg), Experimental Example 23): stimulated appetite; Violence and appetite, After administration: appetite [4, 12]: appetite stimulated; also recorded: stimulated appetite; Violence and appetite, After administration: violence [4, 12]: violence of estrus alleviated; feed intake after administration [4, 12]: increased feed intake; Violence and appetite, After administration: appetite ([4]; 1.5 mg (1.5 mg per kg), Experimental Example 23): stimulated appetite; Violence and appetite, After administration: appetite ([4]; 2 mg (2.0 mg per kg), Experimental Example 23): stimulated appetite; Violence and appetite, After administration: appetite ([4]; 5 mg (5.0 mg per kg), Experimental Example 23): stimulated appetite; Violence and appetite, After administration: appetite ([4]; 10 mg (10 mg per kg), Experimental Example 23): stimulated appetite; Violence and appetite, After administration: appetite ([5]; 4 mg (0.1 mg per kg), Experimental Example 21): stimulated appetite; Violence and appetite, After administration: appetite ([5]; 8 mg (0.2 mg per kg), Experimental Example 21): stimulated appetite; Violence and appetite, After administration: appetite ([5]; 20 mg (0.5 mg per kg), Experimental Example 21): stimulated appetite; Violence and appetite, After administration: appetite [5, 13]: appetite stimulated; also recorded: stimulated appetite; Violence and appetite, After administration: violence [5, 13]: violence of estrus alleviated; feed intake after administration [5, 13]: increased feed intake; Violence and appetite, After administration: appetite ([5]; 40 mg (1.0 mg per kg), Experimental Example 21): stimulated appetite; Violence and appetite, After administration: appetite ([5]; 60 mg (1.5 mg per kg), Experimental Example 21): stimulated appetite; Violence and appetite, After administration: appetite ([5]; 80 mg (2.0 mg per kg), Experimental Example 21): stimulated appetite; Violence and appetite, After administration: appetite ([5]; 200 mg (5.0 mg per kg), Experimental Example 21): stimulated appetite; Violence and appetite, After administration: appetite ([5]; 400 mg (10 mg per kg), Experimental Example 21): stimulated appetite; Violence and appetite, After administration: appetite ([6]; 10 mg (0.1 mg per kg), Experimental Example 2): stimulated appetite; Violence and appetite, After administration: appetite ([6]; 20 mg (0.2 mg per kg), Experimental Example 2): stimulated appetite; Violence and appetite, After administration: appetite ([6]; 50 mg (0.5 mg per kg), Experimental Example 2): stimulated appetite; Violence and appetite, After administration: appetite [6, 14]: appetite stimulated; also recorded: stimulated appetite; Violence and appetite, After administration: violence [6, 14]: violence of estrus alleviated; feed intake after administration [6, 14]: increased feed intake; Violence and appetite, After administration: appetite ([6]; 100 mg (1.0 mg per kg), Experimental Example 2): stimulated appetite; Violence and appetite, After administration: appetite ([6]; 150 mg (1.5 mg per kg), Experimental Example 2): stimulated appetite; Violence and appetite, After administration: appetite ([6]; 200 mg (2.0 mg per kg), Experimental Example 2): stimulated appetite; Violence and appetite, After administration: appetite ([6]; 500 mg (5.0 mg per kg), Experimental Example 2): stimulated appetite; Violence and appetite, After administration: appetite ([6]; 1000 mg (10 mg per kg), Experimental Example 2): stimulated appetite
